Activity calls are given as the source filed them. No cut-off for these calls is given here.
Experiments:
Mus musculus [1] = assay: Compound was evaluated for narcotic analgesia activity in mice by mouse writhing assay at 30 mg/kg; Inactive; format: functional, organism-based; set-up: dose 30 mg/kg
Mus musculus [2] = assay: Compound was evaluated for narcotic analgesia activity in mice by the tail flick test; Weak up to 30 and 38% analgesia at 30 mg/kg; format: functional, organism-based; set-up: dose 30 mg/kg
Mus musculus [3] = assay: Compound was evaluated for antagonism of tail-flick analgesia induced by 6.5 mg/kg of morphine sulfate at 10 mg/kg; Inactive; format: functional, organism-based
Opioid receptor [4] = target: T1, Opioid receptor (Rattus norvegicus, UniProt P33533+P34975+P33535); format: cell membranes, Brain, Membrane
Opioid receptor [5] = target: T1, Opioid receptor; assay: Compound was evaluated for the inhibition of [3H]- naloxone binding to Opioid receptors in rat brain membrane in the presence of Na; format: cell membranes
Mus musculus [6] = assay: Compound was evaluated for antagonism of tail-flick analgesia induced by 6.5 mg/kg of morphine sulfate at 0.3 mg/kg; format: functional
Mus musculus [7] = assay: Compound was evaluated for antagonism of tail-flick analgesia induced by 6.5 mg/kg of morphine sulfate at 1 mg/kg; format: functional
Mus musculus [8] = species: Mus musculus; assay: Compound was evaluated for narcotic analgesia activity in mice by hot plate test; format: functional
Mus musculus [9] = species: Mus musculus; assay: Compound was evaluated for narcotic analgesia activity in mice by mouse writhing assay; format: functional
Mus musculus [10] = species: Mus musculus; assay: Compound was evaluated for narcotic analgesia activity in mice by the tail flick test; format: functional
Opioid receptor [11] = target: T1, Opioid receptor; assay: Compound was evaluated for the inhibition of [3H]- naloxone Opioid receptors binding using rat brain membrane in the absence of Na
Opioid receptor [12] = target: T1, Opioid receptor; assay: Compound was evaluated for the inhibition of [3H]- naloxone Opioid receptors binding using rat brain membrane in the presence of 100 mM Na

Row | SMILES | Ki (Opioid receptor [4]) | Ki (Opioid receptor [5]) | ED50 (Mus musculus [8]) | ED50 (Mus musculus [9]) | ED50 (Mus musculus [10]) | other results
1 | CCC(OC(C)=O)C(CC(C)N(C)CC1CC1)(c1ccccc1)c1ccccc1 (centres undefined) | 2 µM | 30 µM | – | – | – | ED50 (Mus musculus [1]): inactive; ED50 (Mus musculus [2]): Weak activity; ED50 (Mus musculus [3]): inactive
2 | C=CCN(C)C(C)CC(c1ccccc1)(c1ccccc1)C(CC)OC(C)=O (centres undefined) | – | – | 10 mg/kg | 2.5 mg/kg | 3.1 mg/kg | ED80 (Mus musculus [6]): 56.9 mg/kg; ED80 (Mus musculus [7]): 61.4 mg/kg; Ki (Opioid receptor [11]): 0.9 µM; Ki (Opioid receptor [12]): 10 µM
3 | CCC(O)C(CC(C)N(C)CC1CC1)(c1ccccc1)c1ccccc1 (centres undefined) | 0.6 µM | 5 µM | – | – | – | –
4 | CN1CC[C@]23c4c5ccc(O)c4O[C@H]2[C@@H](O)C=C[C@H]3[C@H]1C5.CN1CC[C@]23c4c5ccc(O)c4O[C@H]2[C@@H](O)C=C[C@H]3[C@H]1C5.O=S(=O)(O)O | – | – | 3.05 mg/kg | 0.82 mg/kg | 3.3 mg/kg | –
5 | C=CCN(C)C(C)CC(c1ccccc1)(c1ccccc1)C(O)CC (centres undefined) | 0.15 µM | 2 µM | – | – | – | –
